The results in this text go back to PMC5588088, “Topological Dissection of the Membrane Transport Protein Mhp1 Derived from Cysteine Accessibility and Mass Spectrometry” (Analytical Chemistry, 2017).

Test [1] addresses T1, Mhp1 (Microbacterium maritypicum, UniProt D6R8X8).
T1 construct: gene hyuP; full-length wild type with C-terminal His6 tag, purified in DDM
Briefly: NEM labelling of Cys327 with intact mass spectrometry, protection by ligand. In kind it is binding. Particulars: 140 mM Na+, pH 8, 25 °C, 0.05% DDM.

In test [2] the target is T1, Mhp1. Briefly: tryptophan fluorescence quenching titration. In kind it is binding. Conditions: 140 mM NaCl (also 15 and 1000 mM).

T1 sequence (D6R8X8 whole entry): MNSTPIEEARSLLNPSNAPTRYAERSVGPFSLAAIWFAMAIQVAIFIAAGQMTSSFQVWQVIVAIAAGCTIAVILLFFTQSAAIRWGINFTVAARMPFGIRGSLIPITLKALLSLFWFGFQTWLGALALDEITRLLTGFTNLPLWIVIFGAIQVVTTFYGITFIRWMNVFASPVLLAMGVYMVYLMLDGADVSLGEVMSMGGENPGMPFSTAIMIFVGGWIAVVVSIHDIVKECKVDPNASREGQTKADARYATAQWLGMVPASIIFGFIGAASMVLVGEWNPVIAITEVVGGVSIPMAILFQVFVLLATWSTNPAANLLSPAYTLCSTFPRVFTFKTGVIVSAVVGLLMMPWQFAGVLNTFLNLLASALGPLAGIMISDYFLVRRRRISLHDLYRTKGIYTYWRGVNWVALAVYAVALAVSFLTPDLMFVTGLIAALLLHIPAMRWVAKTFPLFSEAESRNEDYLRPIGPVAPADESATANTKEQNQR

For `O=C1NC(=O)[C@H](Cc2c[nH]c3ccccc23)N1` [L-IMH, 5-indolylmethyl-L-hydantoin], the “reduction in NEM labeling at 2 mM” value at Mhp1 [1] is recorded as 5-indolylmethyl-L-hydantoin (L-IMH).
With `O=C1NC(=O)[C@H](Cc2ccccc2)N1` [L-BH, 5-benzyl-L-hydantoin], the Kd app result on Mhp1 [2] was “Tryptophan fluorescence quenching of Mhp1 upon titration with L-BH”.
